The record followed here is US20240025919A1, “AZA-TETRACYCLIC OXAZEPINE COMPOUNDS AND USES THEREOF” (Genentech, Inc., priority 2022, published 2024).

Structures are written as SMILES.

In assay [1] the target is T1, KRAS WT (Homo sapiens (Human), UniProt P01116). Briefly: KRAS WT Biochemical Assay, BODIPY-GDP Exchange TR-FRET (Example 502; 0.06 nM KRAS WT, 15 nM GDP, 300 nM SOS1, 120-minute incubation). To be noted: read-out: KRas HTRF IC50. How it is done: Example 502: KRAS WT Biochemical Assay, BODIPY-GDP Exchange TR-FRET. Biochemical compound potencies are assessed by evaluating inhibition of SOS1-mediated nucleotide exchange in KRAS WT. In this assay, the SOS1-promoted exchange of fluorescently-labeled GDP (BOPIDY-GDP) is monitored by time-resolved fluorescence resonance energy transfer (TR-FRET). Compounds solubilized in DMSO are dispensed as concentration series into 384-well white assay plates. A preformed complex of 0.06 nM biotin-tagged recombinant human KRAS WT, 15 nM GDP and 0.06 nM terbium-labeled streptavidin (CisBIO) prepared in 10 uL/well assay buffer (20 mM HEPES, pH 7.5, 50 mM NaCl, 10 mM MgCl2, 0.01% Tween-20 and 1 mM dithiothreitol) is added and allowed to incubate for 10-minutes at room temperature. The reaction is initiated with the addition of 5 uL 300 nM recombinant human SOS1 and 300 nM BODIPY-GDP in assay buffer. After a 120-minute incubation, the fluorescence is measured with excitation at 337 nm and emission at 490 and 520 nm. The TR-FRET ratio is determined as the fluorescence at 520 nm divided by the fluorescence at 490 nm multiplied by 10,000. The results are normalized to percent inhibition based on control samples: DMSO (0% inhibition) and control compound at a concentration that inhibits completely (100% inhibition). The normalized TR-FRET results are plotted against compound concentration, and the data are fit to a 4-parameter Hill equation to determine the IC50 values.

Assay [2] deals with T1, KRAS WT. The assay can be described thus: KRAS WT Biochemical Assay, BODIPY-GDP Exchange TR-FRET (Example 501; 3 nM KRAS WT, 3 nM SOS1, 60-minute incubation). Summed up:
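SOS1-mediated exchange assay: 3 nM biotin-KRAS WT with terbium-streptavidin, started with 3 nM SOS1 and 300 nM BODIPY-GDP, HEPES pH 7.5 with MgCl2. TR-FRET (520/490 nm) read after 60 min; normalized to DMSO and full-inhibition control, IC50 from 4-parameter Hill fit.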

Another assay deals with KRAS G12D (Homo sapiens (Human), UniProt P01116, G12D). Briefly: KRAS G12D LoEnz Biochemical Assay, BODIPY-GDP Exchange TR-FRET (SOS1-mediated nucleotide exchange). Conditions: read-out: KRas (G12D) GDP HTRF IC50.
Where [3] appears, read: read-out: KRas(wt) GDP HTRF IC50.

Chain of KRAS G12D (P01116-2 other isoform, or with tags, fused parts or gaps G12D): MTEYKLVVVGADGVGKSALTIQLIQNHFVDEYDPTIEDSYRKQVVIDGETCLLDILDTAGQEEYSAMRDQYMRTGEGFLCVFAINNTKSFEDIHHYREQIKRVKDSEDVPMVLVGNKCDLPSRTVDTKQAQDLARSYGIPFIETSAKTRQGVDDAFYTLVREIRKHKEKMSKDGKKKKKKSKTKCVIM
T1 sequence (P01116-2 other isoform, or with tags, fused parts or gaps): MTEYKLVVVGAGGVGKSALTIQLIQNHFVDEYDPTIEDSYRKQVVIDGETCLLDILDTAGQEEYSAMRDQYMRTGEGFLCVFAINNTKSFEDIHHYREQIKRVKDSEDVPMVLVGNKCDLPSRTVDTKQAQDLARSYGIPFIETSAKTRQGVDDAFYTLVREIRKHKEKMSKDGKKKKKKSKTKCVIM

Consider `C[C@@H]1Oc2nc(-c3cc(N)c(F)c(F)c3CC(F)F)c(F)c3cc(OC[C@@H]4CC[C@H]5COCCN54)nc(c23)N2C[C@H]3CC[C@H](N3)[C@@H]12` [Compound 158, 4-(2,2-Difluoroethyl)-2,3-difluoro-5-((5S,5aS,6S,9R)-1-fluoro-13-(((6S,8aS)-hexahydro-1H-pyrrolo[2,1-c][1,4]oxazin-6-yl)methoxy)-5-methyl-5a,6,7,8,9,10-hexahydro-5H-6,9-epiminoazepino[2′,1′:3,4][1,4]oxazepino[5,6,7-ij][2,7-]naphthyridin-2-yl)aniline], for which, at KRAS WT [1], the IC50 worked out at 121 nM. For the compound `Cc1cc(N)cc(-c2nc3c4c(nc(OC[C@@H]5CC[C@H]6COCCN65)nc4c2F)N2C[C@H]4CC[C@H](N4)[C@H]2[C@H](C)O3)c1CC(F)F` [Compound 230, 4-(2,2-Difluoroethyl)-3-((5S,5aS,6S,9R)-1-fluoro-12-(((6S,8aS)-hexahydro-1H-pyrrolo[2,1-c][1,4]oxazin-6-yl)methoxy)-5-methyl-5a,6,7,8,9,10-hexahydro-5H-4-oxa-3,10a,11,13,14-pentaaza-6,9-methanonaphtho[1,8-ab]heptalen-2-yl)-5-methylaniline], the IC50 amounted to 213 nM on KRAS WT [2] (read-out: KRas HTRF IC50) and 1.13 nM at KRAS G12D. The like results for `Cc1nc(N)cc(-c2nc3c4c(nc(OCC5(CN6CC(C(F)F)C6)CC5)nc4c2F)N2C[C@H]4CC[C@H](N4)[C@H]2[C@H](C)O3)c1C(F)(F)F` [Compound 274, 4-((5S,5aS,6S,9R)-12-((1-((3-(difluoromethyl)108eptalene-1-yl)methyl)cyclopropyl)methoxy)-1-fluoro-5-methyl-5a,6,7,8,9,10-hexahydro-5H-4-oxa-3,10a,11,13,14-pentaaza-6,9-methanonaphtho[1,8-ab]heptalene-2-yl)-6-methyl-5-(trifluoromethyl)pyridin-2-amine] were, in that order, 25.7 nM and 0.34 nM. Consider `Cc1cc(N)nc(-c2nc3c4c(nc(OC[C@@]56CCCN5CC5(CC5(F)F)C6)nc4c2F)N2C[C@H]4CC[C@H](N4)[C@H]2CO3)c1C(F)(F)F` (stereo partly drawn) [Compound 42, 6-((5aS,6S,9R)-12-(((7a'S)-2,2-difluorodihydro-1′H,3′H-spiro[cyclopropane-1,2′-pyrrolizin]-7a′(5′H)-yl)methoxy)-1-fluoro-5a,6,7,8,9,10-hexahydro-5H-4-oxa-3,10a,11,13,14-pentaaza[6,9]methanonaphtho[1,8-ab]heptalen-2-yl)-4-methyl-5-(trifluoromethyl)pyridin-2-amine], for which the IC50 on KRAS WT [2] (setting [3]) came to 45.2 nM; at KRAS G12D, 0.47 nM. Regarding `Cc1nc(N)c(F)c(-c2nc3c4c(nc(OC[C@@]56CCCN5C[C@H](F)C6)nc4c2F)N2C[C@H]4CC[C@H](N4)[C@H]2[C@H](C(F)(F)F)O3)c1C(F)(F)F` [Compound 256, 3-Fluoro-4-((5R,5aS,6S,9R)-1-fluoro-12-(((2R,7aS)-2-fluorotetrahydro-1H-pyrrolizin-7a(5H)-yl)methoxy)-5-(trifluoromethyl)-5a,6,7,8,9,10-hexahydro-5H-4-oxa-3,10a,11,13,14-pentaaza-6,9-methanonaphtho[1,8-ab]heptalen-2-yl)-6-methyl-5-(trifluoromethyl)pyridin-2-amine], the IC50 at KRAS WT [2] (read-out: KRas HTRF IC50) was 17 nM; at KRAS G12D, 0.82 nM. For `C[C@@H]1Oc2nc(-c3cc(O)cc4ccccc34)c(F)c3nc(OC[C@]45CCN4CC(F)(F)C5)nc(c23)N2C[C@H]3CC[C@H](N3)[C@@H]12` [Compound 25, 4-((5S,5aS,6S,9R)-12-(((R)-3,3-difluoro-1-azabicyclo[3.2.0]heptan-5-yl)methoxy)-1-fluoro-5-methyl-5a,6,7,8,9,10-hexahydro-5H-4-oxa-3,10a,11,13,14-pentaaza-6,9-methanonaphtho[1,8-ab]heptalen-2-yl)naphthalen-2-ol], the results for the IC50 at KRAS WT [2] (setting [3]) and at KRAS G12D were 126 nM and 2.04 nM, respectively.

`Cc1nc(N)cc(-c2nc3c4c(nc(OCC5(CN6CCOC(C(F)(F)F)C6)CC5)nc4c2F)N2C[C@H]4CC[C@H](N4)[C@H]2[C@H](C)O3)c1C(F)(F)F` (stereo partly drawn) [Compound 267, 4-((5S,5aS,6S,9R)-1-fluoro-5-methyl-12-((1-((2-(trifluoromethyl)morpholino)methyl)cyclopropyl)methoxy)-5a,6,7,8,9,10-hexahydro-5H-4-oxa-3,10a,11,13,14-pentaaza-6,9-methanonaphtho[1,8-ab]heptalene-2-yl)-6-methyl-5-(trifluoromethyl)pyridin-2-amine]: the concentration for half-maximal inhibition (IC50) at KRAS WT [2] (read-out: KRas HTRF IC50) worked out at 609 nM; at KRAS G12D it was 2.98 nM. As to `C#Cc1cccc2cc(O)cc(-c3nc4c5c(nc(OC[C@@]67CCCN6C[C@H](F)C7)nc5c3F)N3C[C@H]5CC[C@H](CN5CCCF)[C@H]3CO4)c12` [Compound 50, 5-Ethynyl-4-((5aS,6R,9R)-1-fluoro-14-(3-fluoropropyl)-12-(((2R,7aS)-2-fluorotetrahydro-1H-pyrrolizin-7a(5H)-yl)methoxy)-5a,6,7,8,9,10-hexahydro-5H-4-oxa-3,10a,11,13,14-pentaaza-6,9-ethanonaphtho[1,8-ab]heptalen-2-yl)naphthalen-2-ol], the results for the IC50 at KRAS WT [2] (setting [3]) and on KRAS G12D were 1.69 nM and 0.24 nM, respectively. As for `COC1(CF)CN(CC2(COc3nc4c5c(nc(-c6cc(N)nc(C)c6C(F)(F)F)c(F)c5n3)O[C@@H](C)[C@@H]3[C@@H]5CC[C@H](CN43)N5)CC2)C1` [Compound 272, 4-((5S,5aS,6S,9R)-1-fluoro-12-((1-((3-(fluoromethyl)-3-methoxyazetidin-1-yl)methyl)cyclopropyl)methoxy)-5-methyl-5a,6,7,8,9,10-hexahydro-5H-4-oxa-3,10a,11,13,14-pentaaza-6,9-methanonaphtho[1,8-ab]heptalene-2-yl)-6-methyl-5-(trifluoromethyl)pyridin-2-amine], the IC50 at KRAS WT [2] (read-out: KRas HTRF IC50) came to 24.4 nM; on KRAS G12D it was 0.38 nM.

`Cc1c(F)c(N)cc(-c2nc3c4c(nc(OC[C@@]56CCCN5C[C@H](F)C6)nc4c2F)N2C[C@H]4CC[C@H](N4)[C@H]2[C@H](C(F)(F)F)O3)c1C(F)(F)F` [Compound 247, 2-Fluoro-5-((5R,5aS,6S,9R)-1-fluoro-12-(((2R,7aS)-2-fluorotetrahydro-1H-pyrrolizin-7a(5H)-yl)methoxy)-5-(trifluoromethyl)-5a,6,7,8,9,10-hexahydro-5H-4-oxa-3,10a,11,13,14-pentaaza-6,9-methanonaphtho[1,8-ab]heptalene-2-yl)-3-methyl-4-(trifluoromethyl)aniline]: the IC50 on KRAS WT [2] (read-out: KRas HTRF IC50) amounted to 0.959 nM; on KRAS G12D it was 0.21 nM. The like results for `C[C@@H]1Oc2nc(-c3cc(N)c(F)cc3CC(F)F)c(F)c3nc(OC[C@@]45CCCN4C[C@H](F)C5)nc(c23)N2C[C@H]3CC[C@H](N3)[C@@H]12` [Compound 187, 4-(2,2-Difluoroethyl)-2-fluoro-5-((5S,5aS,6S,9R)-1-fluoro-12-(((2R,7aS)-2-fluorotetrahydro-1H-pyrrolizin-7a(5H)-yl)methoxy)-5-methyl-5a,6,7,8,9,10-hexahydro-5H-4-oxa-3,10a,11,13,14-pentaaza-6,9-methanonaphtho[1,8-ab]heptalene-2-yl)aniline] were, in that order, 163 nM and 0.51 nM. Consider `Cc1c(F)c(N)c(F)c(-c2nc3c4c(nc(OC[C@@]56CCCN5C/C(=C\F)C6)nc4c2F)N2C[C@H]4CC[C@H](N4)[C@H]2[C@H](C)O3)c1C(F)(F)F` [Compound 229, 2,6-Difluoro-3-((5S,5aS,6S,9R)-1-fluoro-12-(((S,Z)-2-(fluoromethylene)tetrahydro-1H-pyrrolizin-7a(5H)-yl)methoxy)-5-methyl-5a,6,7,8,9,10-hexahydro-5H-4-oxa-3,10a,11,13,14-pentaaza-6,9-methanonaphtho[1,8-ab]heptalene-2-yl)-5-methyl-4-(trifluoromethyl)aniline], for which the IC50 at KRAS WT [2] (read-out: KRas HTRF IC50) was 12 nM; on KRAS G12D, 0.36 nM.

For `Cc1nc(N)cc(-c2nc3c4c(nc(OC[C@@]56CCCN5C[C@H](F)C6)nc4c2F)N2C[C@H]4CC[C@H](N4)[C@H]2[C@H](C(F)(F)F)O3)c1C(F)(F)F` [Compound 242, 4-((5R,5aS,6S,9R)-1-Fluoro-12-(((2R,7aS)-2-fluorotetrahydro-1H-pyrrolizin-7a(5H)-yl)methoxy)-5-(trifluoromethyl)-5a,6,7,8,9,10-hexahydro-5H-4-oxa-3,10a,11,13,14-pentaaza-6,9-methanonaphtho[1,8-ab]heptalen-2-yl)-6-methyl-5-(trifluoromethyl)pyridin-2-amine], the results for the IC50 on KRAS WT [2] (read-out: KRas HTRF IC50) and at KRAS G12D were 5.29 nM and 0.33 nM, respectively. Taken in the same sequence, the figures for `Cc1c(F)c(N)cc(-c2nc3c4c(nc(OC[C@@]56CCCN5C[C@H](F)C6)nc4c2F)N2CCNC[C@H]2[C@H](C)O3)c1C(F)(F)F` (single isomer, unassigned) [235 (isomer 1)] were 143 nM and 65.8 nM.
